In assay [1] the test system is miR-15b. As to the kind of experiment: miR-15b expression in murine diabetic and non-diabetic fibroblasts. Particulars: 24 h, response even at 0.1 μM; listed as UCUF-965. It is filed as cell-based. The procedure:
Total RNA was extracted with TRIzol reagent (Invitrogen, Carlsbad, CA, USA) according to the manufacturer's established protocol. RNA was converted into cDNA using the SuperScript First-Strand Synthesis System (Invitrogen, Life Technologies). Primers and probes for mouse miR-15b and miR-29a were acquired from Applied Biosystems TaqMan gene expression assay (Applied Biosystems, Foster City, CA). Quantitative PCR was performed on a BIO-RAD CFX96 according to the manufacturer's instructions. Quantitative values of genes of interest are normalized based on U6. Samples (n=5 per group) were amplified in triplicate and results were averaged for each individual sample. The ΔΔCT method was used to calculate relative gene expression. Results are reported as mean±SD.
The expression of specific micro-RNA levels reported to be crucial in the wound-healing process were measured in order to validate and correlate the in vitro activity of UCUF-965 as a selective CXCR4 receptor modulator to micro-RNA expression. Murine diabetic and non-diabetic fibroblasts were cultured with increasing concentrations of the compound. The cells were incubated for 24 h and then total cellular RNA was isolated to examine the ability of the compound to correct the abnormal expression levels of miR-15b, miR-29a, and miR-146a. […]

Assay [2] concerns the target CXCR4 (Homo sapiens, UniProt P61073). As to the kind of experiment: Calcium flux (Fluo-4) in CEM-CCRF cells. It is filed as cell-based. Set-up: host or cells: CEM-CCRF. To be noted: 10 μM; listed as UCUF-965. As to the method: Fluo-4 Direct Calcium Assay Kit (Invitrogen; F10472) reagents were prepared according to the supplier guidelines at 2× concentration and allowed to equilibrate to room temperature in the dark. […] Following incubation, 25 μL of cell suspension loaded with Fluo-4 Direct Calcium reagent was dispensed into a 384-well black wall clear-bottom plate (Corning; 3764). […] Calcium flux responses were measured on the BMG LABTECH CLARIOstar Plus (BMG LABTECH Inc., Cary, NC) using the CLARIOstar Plus supplier excitation and emission settings for Fluo-4 (Calcium Saturated). Measurements were conducted using a bottom-read kinetic well-mode with measurements occurring at 0.5 sec intervals for 150 sec and injection occurring at 10.0 sec.

Entries after “also recorded” stand apart in the source; their conditions may differ.

Sequence of CXCR4 (P61073 whole entry): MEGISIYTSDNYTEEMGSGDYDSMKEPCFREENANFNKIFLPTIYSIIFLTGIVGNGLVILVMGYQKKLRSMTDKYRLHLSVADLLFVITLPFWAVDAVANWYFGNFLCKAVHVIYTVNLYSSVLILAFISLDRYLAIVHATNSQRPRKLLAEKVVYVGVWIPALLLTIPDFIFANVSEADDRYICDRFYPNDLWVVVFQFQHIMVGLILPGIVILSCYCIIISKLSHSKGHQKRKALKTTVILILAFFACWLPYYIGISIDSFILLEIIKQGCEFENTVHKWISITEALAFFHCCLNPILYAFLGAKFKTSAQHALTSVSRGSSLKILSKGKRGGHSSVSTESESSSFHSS

Turning to `CCOc1ccccc1-c1nnc2n1N=C(c1ccc(N3CCCC3)cc1)CS2` [Thiadiazine Entry 23, 3-(2-ethoxyphenyl)-6-(4-(pyrrolidin-1-yl)phenyl)-7H-[1,2,4]triazolo[3,4-b][1,3,4]thiadiazine], the “miR-15b expression” value in assay [1] is “decreased the expression of miR-15b; also recorded: suppression of miR15b”. Moreover, the “calcium flux activity” value in assay [2] is “induce CXCR4-mediated calcium flux”.

For the origin of these results see patent US20250136617A1 (The Regents of the University of Colorado, A Body Corporate, priority 2022, published 2025).
